Activity calls are given as the source filed them. The calls are words filed in the database; no cut-off is given here.
Experiments:
[1] = target: T1, Macrophage migration inhibitory factor (Homo sapiens) (UniProt P14174); assay: Inhibition of recombinant human macrophage migration inhibitory factor binding to human ectodomain CD74 at 0.1 to 2.5 uM
T1 sequence (whole entry): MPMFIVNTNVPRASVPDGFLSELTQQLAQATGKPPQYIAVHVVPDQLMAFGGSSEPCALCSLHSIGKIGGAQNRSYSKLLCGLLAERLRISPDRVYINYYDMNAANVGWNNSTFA

[2] = test system: Plasmodium falciparum; assay: Inhibition of purified full-length biotinylated-Plasmodium falciparum macrophage migration inhibitory factor binding to human sCD74 at 2.5 uM after 45 mins

Compound	inhibition [1]	inhibition [2] [%]
COc1ccc(-c2cc(Oc3cc(C)cc(OC)c3)cc(C)n2)cc1	inactive	75
Cc1cc(Oc2cccc(O)c2)cc(-c2ccccc2)n1	inactive	25
